ChEMBL document CHEMBL1201862, “PubChem BioAssay data set” (2004)
The source made the active and inactive calls.

Columns and labels:
[1] = molecular target: Heat shock protein HSP 90-alpha (Homo sapiens, UniProt P07900); assay: Luminescence-based dose response biochemical high throughput screening assay for inhibitors of the Heat Shock Protein 90 (HSP90). [Related pubchem assays: 1831 (Summary AID.), 1846 (Confirmation screen.), 1789 (Primary screen.)]
[2] = molecular target: G-protein coupled receptor 183 (Homo sapiens, UniProt P32249); assay: SAR confirmation of small molecule antagonists of the EBI2 receptor via a luminescent beta-arrestin assa.; type: functional
Sequence of G-protein coupled receptor 183 (P32249 whole entry): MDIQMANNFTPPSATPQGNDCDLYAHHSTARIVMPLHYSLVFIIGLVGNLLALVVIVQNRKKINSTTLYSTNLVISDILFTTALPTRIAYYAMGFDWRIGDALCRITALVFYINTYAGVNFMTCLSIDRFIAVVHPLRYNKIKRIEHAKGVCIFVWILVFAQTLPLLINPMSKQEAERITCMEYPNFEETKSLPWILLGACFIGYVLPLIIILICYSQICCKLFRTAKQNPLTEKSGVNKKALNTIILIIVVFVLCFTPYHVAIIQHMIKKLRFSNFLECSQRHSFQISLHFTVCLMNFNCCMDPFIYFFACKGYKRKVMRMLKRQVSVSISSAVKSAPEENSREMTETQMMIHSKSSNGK

[3] = P. falciparum Dd2 growth inhibitors, dose response, SYBR Green, dry powder samples (AID 1159566); type: functional, cell-based;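 note: potency for growth inhibition with lower SYBR green DNA signal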
[4] = P. falciparum ATP4 D1247Y mutant growth inhibitors, dose response, NITD609-resistant line, SYBR Green, dry powder (AID 1159571); type: functional, cell-based;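 note: parasites synchronized at ring stage by sorbitol before testing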
[5] = P. falciparum Dd2 growth inhibitors, dose response, SYBR Green, dry powder samples, set 9 (AID 1159568); type: functional, cell-based
[6] = P. falciparum Dd2 growth inhibitors, dose response, SYBR Green, cherry-picked samples (AID 1159567); type: functional, cell-based
[7] = Plasmodium falciparum Dd2 Sybr green parasite growth Measured in Cell-Based and Microorganism Combination System Using Plate Reader - 2153-01_Inhibitor_Dose_DryPowder_Activity_Set3.; type: functional
[8] = P. falciparum 3D7-ScDHODH growth inhibitors, dose response, SYBR Green, dry powder samples (AID 1159570); type: functional, cell-based;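 note: parasite growth measured after 72 hours of compound exposure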
[9] = C. albicans growth with fluconazole, confirmation, fluorescence, retest (AID 2467); type: functional, cell-based
[10] = molecular target: Bcl-2-like protein 1 (Homo sapiens, UniProt Q07817); assay: BCL-XL inhibitors, dose response, selectivity assay for MCL1 inhibitor project, biochemical, fluorescence polarization, 1536-well (AID 2218)
Sequence of Bcl-2-like protein 1 (Q07817 whole entry): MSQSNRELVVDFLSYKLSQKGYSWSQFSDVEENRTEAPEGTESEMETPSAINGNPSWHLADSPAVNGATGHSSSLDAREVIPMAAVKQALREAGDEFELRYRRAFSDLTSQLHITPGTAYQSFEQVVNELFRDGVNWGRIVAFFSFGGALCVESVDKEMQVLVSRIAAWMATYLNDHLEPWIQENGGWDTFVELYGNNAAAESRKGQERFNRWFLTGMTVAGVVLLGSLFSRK

[11] = NIH-3T3 fibroblast cytotoxicity, dose response, cytotoxicity control, cell-based, fluorescence, Alamar Blue, secondary assay (AID 2327); type: functional;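 note: NIH-3T3 mouse fibroblasts cultured with fluconazole at 8 µg/mL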
[12] = molecular target: Induced myeloid leukemia cell differentiation protein Mcl-1 (Homo sapiens, UniProt Q07820); assay: MCL1-BIM BH3 interaction inhibitors, dose response, biochemical, fluorescence polarization, BIM-BH3 peptide, 1536-well (AID 2217)
Sequence of Induced myeloid leukemia cell differentiation protein Mcl-1 (Q07820 whole entry): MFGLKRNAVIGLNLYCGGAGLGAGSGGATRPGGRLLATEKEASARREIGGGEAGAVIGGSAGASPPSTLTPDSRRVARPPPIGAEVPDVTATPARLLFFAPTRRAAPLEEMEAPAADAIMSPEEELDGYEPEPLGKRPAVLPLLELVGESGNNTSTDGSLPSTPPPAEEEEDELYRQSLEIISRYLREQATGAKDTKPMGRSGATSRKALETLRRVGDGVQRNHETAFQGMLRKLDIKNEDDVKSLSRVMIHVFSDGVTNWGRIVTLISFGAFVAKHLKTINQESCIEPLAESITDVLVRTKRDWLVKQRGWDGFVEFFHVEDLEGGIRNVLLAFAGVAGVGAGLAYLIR

[13] = growth suppression of PTEN-null colon cells, dose response, cell-based, HCT116 PTEN knockout (AID 1047); type: functional;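 note: HCT116 colon tumor cells with PTEN knocked out; cells exposed to compound for 60 hours before readout; potency for loss of cell viability measured by luminescence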
[14] = growth suppression of beta-catenin-knockout colon cells, dose response, cell-based, HCT116, human colon tumor (AID 1045); type: functional;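 note: HCT116 colon tumor cells with beta catenin knocked out; cells exposed to compound for 60 hours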
[15] = cytotoxicity in HEK-293T cells, dose response, cytotoxicity control for BCR NF-kB inhibitor project, luminescence, B-cell screen hits (AID 489021); type: functional, cell-based;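 note: HEK-293T cells carrying an NF-kB luciferase reporter; cells exposed to compound for about 14 hours before viability readout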
[16] = cytotoxicity toward NIH3T3 fibroblasts, dose response, counter-screen, cell-based, ATP luminescence, mouse fibroblasts (AID 2010); type: functional;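 note: cells exposed to compound for about 90 hours before reading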
[17] = cytotoxicity in HPDE-C7 cells, cell-based, fluorescence, HTS (AID 430); type: functional; details: Homo sapiens
[18] = cytotoxicity in KRAS-transformed pancreatic duct cells, primary screen, cell-based, fluorescence, HTS (AID 431); type: functional; details: Homo sapiens;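 note: cell line used: HPDE-C7K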
[19] = inhibitors of intracellular T. cruzi replication, confirmation, NIH3T3 host cells, beta-gal luminescence (AID 2044); type: functional, cell-based;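 note: intracellular parasites grown in NIH/3T3 mouse fibroblasts as host cells; luminescent beta-galactosidase reporter signal from transgenic T. cruzi replicating inside host cells; inhibitors lower the luminescence signal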
[20] = microbe, parasite or virus in culture; type: functional; details: Mycobacterium tuberculosis
[21] = T. b. rhodesiense proliferation inhibition, dose response, STIB900 strain, plate reader, cherry pick (AID 651893); type: functional, cell-based; details: Trypanosoma brucei
[22] = T. cruzi intracellular amastigote growth inhibition, dose response, imaging, CA-I/72 strain, bovine embryo skeletal muscle, dry powder (AID 651885); type: functional, cell-based
[23] = L. donovani amastigote growth inhibition, dose response, axenic amastigotes, plate reader, cherry pick (AID 651891); type: functional, cell-based; details: Leishmania donovani
[24] = T. cruzi growth inhibition in host cells, dose response, cell-based, plate reader, dry powder, set 2 (AID 652275); type: functional
[25] = T. b. rhodesiense proliferation inhibition, dose response, STIB900 strain, plate reader, dry powder (AID 651894); type: functional, cell-based
[26] = P. falciparum blood-stage growth inhibition, dose response, NF54 strain, plate reader, dry powder (AID 651889); type: functional, cell-based
[27] = growth inhibition of intracellular T. cruzi, dose response, cell-based, plate reader, dry powder samples (AID 651845); type: functional
[28] = T. cruzi amastigote growth inhibition, dose response, Tulahuen strain, L-6 host cells, dry powder (AID 651890); type: functional, cell-based
[29] = cytotoxicity in L-6 rat myocytes, dose response, cytotoxicity control, cell-based, plate reader, cherry-pick (AID 651896); type: functional
[30] = L. donovani amastigote growth inhibition, dose response, axenic amastigotes, plate reader, dry powder (AID 651892); type: functional, cell-based
[31] = L-6 rat myoblast cytotoxicity, dose response, counter-screen for T. cruzi inhibitor project, cell-based, plate reader, dry powder (AID 651895); type: functional
[32] = intracellular Trypanosoma cruzi inhibitors in host cells – cell-based, plate reader, cherry-pick samples, set 3, dose response (AID 651818); type: functional;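 note: compounds incubated with infected cells for about four days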
[33] = molecular target: Transthyretin (Homo sapiens, UniProt P02766); assay: Luminescence-based cell-based high throughput dose response assay to identify activators of Transthyretin (TTR) transcription.; type: functional

## Cc1nc(NC(=O)/C=C/c2ccccc2)sc1C(=O)Nc1ccccc1Cl
[1]
  IC50: 2.91 µM (active)

## O=C(CCc1ccc(F)cc1)N1CCN(S(=O)(=O)/C=C/c2ccccc2)CC1
[2]
  IC50: 0.113 µM (active)

## CO[C@@H]1CN(C)C(=O)c2ccc(NC(=O)Nc3ccccc3F)cc2OC[C@@H](C)N(Cc2ccccc2F)C[C@H]1C
[3]
  AC50: 0.0449 µM (active)
[4]
  AC50: 0.122 µM (active)
[5]
  AC50: 0.674 µM (active)
[6]
  AC50: 0.356 µM (active)
[7]
  AC50: 0.586 µM (active)
[8]
  AC50: 0.948 µM (active)

## C=CCc1cccc(/C=N/NC(=O)CNc2cccc3ccccc23)c1O
[9]
  EC50: 3.28 µM (active)
[10]
  IC50: > 109 µM (not active)
[11]
  EC50: > 150 µM (inactive)
[12]
  IC50: > 109 µM (not active)

## CCC(C)NC(=O)c1c(N)n(/N=C/c2ccccn2)c2nc3ccccc3nc12 (stereo not drawn)
[13]
  EC50: 32.3 µM (active)
[14]
  EC50: 30.2 µM (active)
[15]
  IC50: 43.2 µM (inactive)
[16]
  EC50: > 30 µM (not active)
[17]
  EC50: 4.73 µM (active)
[18]
  EC50: 6.39 µM (active)
[19]
  EC50: 2.18 µM (active)
[20]
  CC50: > 40 µM (active)

## C[C@H]1CN([C@@H](C)CO)C(=O)c2cccc(NC(=O)c3ccncc3)c2O[C@@H]1CN(C)Cc1ccc(Oc2ccccc2)cc1
[21]
  IC50: 5.78 µM (inactive)
[22]
  IC50: 0.00066 µM (active)
[23]
  IC50: 13.2 µM (inactive)
[24]
  AC50: 0.00442 µM (active)
[25]
  IC50: 1.5 µM (inactive)
[26]
  IC50: 0.504 µM (inactive)
[27]
  AC50: 0.000457 µM (active)
[28]
  IC50: 0.0295 µM (active)
[29]
  IC50: 14.4 µM (active)
[30]
  IC50: 8.4 µM (inactive)
[31]
  IC50: 17.1 µM (inactive)
[32]
  AC50: 0.08 µM (active)

## CC(Oc1ccccc1)C(=O)N1CCN=C1SCc1ccccc1 (stereo not drawn)
[33]
  EC50: > 167 µM (inactive)
